# Measurements reported in paper PMC5491917, “In vitro and in vivo anticancer studies of 2'-hydroxy chalcone derivatives exhibit apoptosis in colon cancer cells by HDAC inhibition and cell cycle arrest” (EXCLI Journal, 2017).
# Test system: DMH induced colorectal carcinoma
# Experiment: DMH (1,2-dimethyl hydrazine) induced colon cancer in Wistar rats
# Assay type: in vivo
# Conditions: ELISA; test compounds 100 mg/kg p.o., 5-FU 10 mg/kg i.p., 21 days; DMH control 20.2 ± 0.8, normal control 0.8 ± 0.1
# Protocol: Test compound: Three test compounds, namely C1, C2 & C3 were suspended in 0.25 % sodium carboxy methyl cellulose (CMC) and were administered orally (p.o) with a dosing volume of 10 ml/kg.
# Standard drug: 5-Fluorouracil (5-FU) was used as standard. It was procured in the form of injection and administered intraperitoneally (i.p) with a dosing volume of 10 ml/kg.
# Induction of colon cancer was achieved using DMH according to a previously described procedure with few modifications (Perše and Cerar, 2005[15]). DMH at a dose of 30 mg/kg was administered i.p once a week for 20 weeks. The incidence of aberrant crypt foci (ACFs) and adenocarcinoma were confirmed by sacrificing a few of the animals after 20 weeks confirming the induction of colon cancer in experimental animals. Finally, the animals were randomized into five experimental groups based on their body weight.
# Group 1 (normal control): Animals (n=6) were administered 0.25 % CMC in water p.o.
# Group 2 (DMH control): Animals (n=6) were administered DMH
# Group 3 (standard drug): Animals (n=6) received 5-FU 10 mg/kg i.p. for 21 days of study period
# Group 4 (C1): Animals (n=6) received C1 at 100 mg/kg p.o for 21 days
# Group 5 (C2): Animals (n=6) received C2 at 100 mg/kg p.o. for 21 days.
# Group 6 (C3): Animals (n=6) received C3 at 100 mg/kg p.o. for 21 days.
# The distal part of the colon, which was removed from the experimental animals after the study period was cut open and placed flat on a filter paper and fixed with 10 % buffered formalin for 12 h. Further, it was stained with 0.1 % methylene blue in PBS for 5 min. Specimens were later observed under microscope for ACF formation and were calculated as the number of counts/5 cm^2 in colon tissue. The entire colon was considered to study the incidence of adenocarcinoma. The growth was critically observed and the count and size were noted from each animal.
# The levels of TNF-α were estimated in the colon of experimental animals, for which 10 % homogenate of colon tissue was prepared in tissue lysis buffer. The homogenate was centrifuged and the supernatant was collected to measure TNF-α levels using commercially available ELISA kits of rat TNF-α (# KRC3011, Invitrogen).
# Length of the isolated colon was measured in centimeters and weight was measured in g. The colon length/weight (L/W) ratio was then calculated. Isolated spleen, kidney and heart of the experimental animals were also weighed in g and respective index was calculated.
# Histopathology was carried out according to the described procedure (Reddy et al., 2015[18]). The stained slides were then analyzed under a microscope for any anatomical changes.
# All the values were expressed as mean ± SEM of 6 animals. Data were analyzed using one-way ANOVA followed by Tukey's multiple comparison tests using Prism 5.03 (Graph Pad Software Inc., La Jolla, CA, USA). Values of p < 0.05 were considered to be significant.
row,SMILES,TNF-α level in colon homogenate
1,"O=c1[nH]cc(F)c(=O)[nH]1 [5-FU, 5-Fluorouracil, reference compound]",16.09 ± 1.9
2,"Cc1ccc(/C=C/C(=O)c2ccccc2O)cc1 [C1, 1-(2-Hydroxy-phenyl)-3-p-tolyl-propenone]",6.18 ± 2.5

# Same assay, conditions: colon tissue; test compounds 100 mg/kg p.o., 5-FU 10 mg/kg i.p., 21 days; DMH control 81.6 ± 1.4; mean ± SEM, n=6
row,SMILES,No. of ACF/5 cm^2
1,"O=c1[nH]cc(F)c(=O)[nH]1 [5-FU, 5-Fluorouracil, reference compound]",42.3 ± 1.4 /5 cm^2
2,"Cc1ccc(/C=C/C(=O)c2ccccc2O)cc1 [C1, 1-(2-Hydroxy-phenyl)-3-p-tolyl-propenone]",54.0 ± 0.5 /5 cm^2
3,"O=C(/C=C/c1ccc(O)cc1)c1ccccc1O [C2, 3-(4-Hydroxy-phenyl)-1-(2-hydroxy-phenyl)-propenone]",60.0 ± 1.1 /5 cm^2
4,"O=C(O)c1ccc(C=CC(=O)c2ccccc2O)cc1 [C3, 4-[3-(2-Hydroxy-phenyl)-3-oxo-propenyl]-benzoic acid]",73.6 ± 0.8 /5 cm^2

# Same assay, conditions: entire colon; test compounds 100 mg/kg p.o., 5-FU 10 mg/kg i.p., 21 days; DMH control 15 ± 1.2; mean ± SEM, n=6
row,SMILES,No. of adenocarcinoma
1,"O=c1[nH]cc(F)c(=O)[nH]1 [5-FU, 5-Fluorouracil, reference compound]",7 ± 0.5
2,"Cc1ccc(/C=C/C(=O)c2ccccc2O)cc1 [C1, 1-(2-Hydroxy-phenyl)-3-p-tolyl-propenone]",10 ± 0.8

# Test system: Vero cells
# Experiment: MTT cytotoxicity assay on Vero
# Assay type: cell-based, African green monkey
# Conditions: Chlorocebus sabaeus, 48 h exposure
# Protocol: (§1) Human colorectal carcinoma (HCT116) and African green monkey kidney epithelial cells (VERO) were procured from the National Centre for Cell Science, Pune, MH, India. The cells were maintained in Dulbecco's Modified Eagle's Medium (DMEM) (Sigma-Aldrich Co. LLC, ST. Louis, Mo, USA) supplemented with 10 % Fetal Bovine Serum (FBS) (HiMedia Laboratories, Mumbai, India) and 1 × Penicillin/Streptomycin at 37 °C in CO2 incubator (NU-5501 E/G, NuAire Inc., Plymoth, MN, USA) in humidified atmosphere of 5 % CO2 and 95 % air. The cells were maintained by routine sub-culturing in 25 cm^2 tissue culture flasks.
# (§2) Cytotoxic potential of the test compounds were assessed using MTT assay (Kumar et al., 2016[9]). In brief, HCT116 and Vero cells were harvested from confluent flask and seeded (5 × 10^4 cells/well) in 96 well plates. After 24 h of incubation, the cells were exposed to different concentration of the test compounds for 48 h. Further, 50 µl of MTT reagent (HiMedia Laboratories, Mumbai, India) (2 mg/ml in sterile PBS) was added into each well after 48 h and incubated for 3 more h. The formazan crystals formed were solubilized using 100 % DMSO and the optical density was measured at 540 nm using micro plate reader (ELx800, BioTek Instruments Inc., Winooski, VT, USA).
row,SMILES,IC50 [µM]
1,"Cc1ccc(/C=C/C(=O)c2ccccc2O)cc1 [C1, 1-(2-Hydroxy-phenyl)-3-p-tolyl-propenone]",26.3
2,"O=C(/C=C/c1ccc(O)cc1)c1ccccc1O [C2, 3-(4-Hydroxy-phenyl)-1-(2-hydroxy-phenyl)-propenone]",88.3
3,"O=C(O)c1ccc(C=CC(=O)c2ccccc2O)cc1 [C3, 4-[3-(2-Hydroxy-phenyl)-3-oxo-propenyl]-benzoic acid]",178

# Test system: HCT116 cells
# Experiment: Acridine orange/Ethidium bromide (AO/EB) staining
# Assay type: cell-based, human
# Conditions: HCT116, 48 h, mean ± SEM of 100 cells
# Protocol: AO/EB dual staining was performed in order to determine the apoptosis inducing potential of the selected test compounds in HCT116 cell line with few modifications (Kumar et al., 2016[9]). In brief, 5 × 10^5 cells were seeded in 6 wells plate containing 2 ml of medium and incubated for 24 h. After 24 h, cells were treated with the test compounds and incubated for 48 h. After 48 h of incubation, the wells were washed with phosphate buffer saline (PBS) and cells were fixed with ice cold ethanol (70 %) for 30 min. Ethanol was then removed and cells were washed again with PBS followed by the addition of 200 µl of AO/EB (20/30 µg/ml) stain in each well. The plate was later kept in the dark for 20 min. The excess stain was further washed thrice with PBS and observed for their fluorescence under a fluorescent microscope (Eclipse TS100-F, Nikon Instruments Inc., Melville, NY, USA).
row,SMILES,% apoptotic cells (AO/EB staining) [%]
1,"O=c1[nH]cc(F)c(=O)[nH]1 [5-FU, 5-Fluorouracil, reference compound]",45 ± 0.87
2,"Cc1ccc(/C=C/C(=O)c2ccccc2O)cc1 [C1, 1-(2-Hydroxy-phenyl)-3-p-tolyl-propenone]",42.4 ± 2.25
3,"O=C(/C=C/c1ccc(O)cc1)c1ccccc1O [C2, 3-(4-Hydroxy-phenyl)-1-(2-hydroxy-phenyl)-propenone]",40 ± 2.5
4,"O=C(O)c1ccc(C=CC(=O)c2ccccc2O)cc1 [C3, 4-[3-(2-Hydroxy-phenyl)-3-oxo-propenyl]-benzoic acid]",38.7 ± 0.94

# Test system: histone deacetylase (HDAC) enzyme
# Experiment: Whole cell HDAC enzyme assay
# Assay type: cell-based, human
# Conditions: HCT116 cells, 18 h treatment, mean ± SEM, triplicate; read-out: IC50 whole cell HDAC enzyme inhibition
# Protocol: HCT116 cells were harvested and seeded in 96 well sterile, black well plates at 2 × 10^4 cells/well and incubated overnight. Further, the cells were treated with different concentration of the test compounds for a period of 18 h. Then, 15 mM Boc-Lys(Ac)-AMC substrate (Sigma Aldrich # SCP0168) was added and incubated for 1 h. The reaction was terminated by the addition of 50 µL of stop solution (trypsin 2 mg/ml, 1 % NP40, […]) in HDAC assay buffer (25 mM Tris-HCl (pH 8.0), 137 mM NaCl, 2.7 mM KCl, 1 mM MgCl2). The reaction was then allowed to proceed for 15 min at 37 °C after which, the fluorescence was measured at 360 nm excitation and 460 nm emission using fluorescence micro plate reader (FLx800, BioTek Instruments Inc., Winooski, VT, USA) (Reddy et al., 2015[18]).
row,SMILES,IC50 [µM]
1,"Cc1ccc(/C=C/C(=O)c2ccccc2O)cc1 [C1, 1-(2-Hydroxy-phenyl)-3-p-tolyl-propenone]",105
2,"O=C(/C=C/c1ccc(O)cc1)c1ccccc1O [C2, 3-(4-Hydroxy-phenyl)-1-(2-hydroxy-phenyl)-propenone]",394 ± 12.9
3,"O=C(O)c1ccc(C=CC(=O)c2ccccc2O)cc1 [C3, 4-[3-(2-Hydroxy-phenyl)-3-oxo-propenyl]-benzoic acid]",929 ± 56.6

# Same assay, conditions: HCT116 cells; read-out: IC50 inhibition of HDAC (unit inferred)
row,SMILES,IC50 [µM]
1,"Cc1ccc(/C=C/C(=O)c2ccccc2O)cc1 [C1, 1-(2-Hydroxy-phenyl)-3-p-tolyl-propenone]",< 500
2,"O=C(/C=C/c1ccc(O)cc1)c1ccccc1O [C2, 3-(4-Hydroxy-phenyl)-1-(2-hydroxy-phenyl)-propenone]",< 500

# Test system: HCT116 cells
# Experiment: Cell cycle analysis (propidium iodide, flow cytometry)
# Assay type: cell-based, human
# Conditions: HCT116, 48 h treatment; normal control 9.5 %
# Protocol: The ability of the test compounds to arrest any phase of the cell cycle was determined using the described procedure (Reddy et al., 2015[18]). In this method, HCT116 cells were harvested and seeded at a density of 1 × 10^6 cell in 60 mm petri plate and incubated for 24 h. After 24 h cells were treated with test compounds for 48 h. Then the cells were washed with PBS, trypsinized and centrifuged. The cell pellets were later fixed in 70 % ice cold ethanol and stored at -20 °C for 24 h. After fixing, the pellet was dislodged in PBS and stained with propidium iodide solution. The cells were then analyzed using Accuri C6 flow cytometer with the threshold levels adjusted to remove the debris (BD Biosciences, San Jose, CA, USA) and data analysis were performed using BD Accuri™ C6 software.
row,SMILES,Cells in S phase (M2) [%]
1,"O=C(O)c1ccc(C=CC(=O)c2ccccc2O)cc1 [C3, 4-[3-(2-Hydroxy-phenyl)-3-oxo-propenyl]-benzoic acid]",12

# Same assay, conditions: HCT116, 48 h treatment; normal control 18.2 %
row,SMILES,Cells in G2/M phase (M3) [%]
1,"Cc1ccc(/C=C/C(=O)c2ccccc2O)cc1 [C1, 1-(2-Hydroxy-phenyl)-3-p-tolyl-propenone]",25
2,"O=C(/C=C/c1ccc(O)cc1)c1ccccc1O [C2, 3-(4-Hydroxy-phenyl)-1-(2-hydroxy-phenyl)-propenone]",19.5

# Test system: HCT116 cells
# Experiment: MTT cytotoxicity assay on HCT116
# Assay type: cell-based
# Conditions: Homo sapiens, HCT-116, 48 h exposure, read-out: IC50 Value HCT116
# Protocol: as §1, §2
row,SMILES,IC50 [µM]
1,"O=C(/C=C/c1ccc(O)cc1)c1ccccc1O [C2, 3-(4-Hydroxy-phenyl)-1-(2-hydroxy-phenyl)-propenone]",81.4
2,"O=C(O)c1ccc(C=CC(=O)c2ccccc2O)cc1 [C3, 4-[3-(2-Hydroxy-phenyl)-3-oxo-propenyl]-benzoic acid]",117

# Same assay, conditions: Homo sapiens, HCT-116, 48 h of treatment, read-out: IC50 value on HCT116 cells
row,SMILES,IC50 [µM]
1,"O=C(/C=C/c1ccc(O)cc1)c1ccccc1O [C2, 3-(4-Hydroxy-phenyl)-1-(2-hydroxy-phenyl)-propenone]",< 200
2,"O=C(O)c1ccc(C=CC(=O)c2ccccc2O)cc1 [C3, 4-[3-(2-Hydroxy-phenyl)-3-oxo-propenyl]-benzoic acid]",< 200

# Test system: HCT116 cells
# Experiment: Annexin V assay (Muse Cell Analyzer)
# Assay type: cell-based, human
# Conditions: HCT116, 48 h; 5-FU 20 μM, C1 25 μM, C2 70 μM, C3 70 μM
# Protocol: Apoptosis determination by Annexin V staining was carried out using Muse Cell Analyzer with the kit provided by the manufacturer Merck Millipore. In brief, 1 × 10^6 cells were seeded in 60 mm tissue culture dish and after overnight adherence test compounds were added and incubated. After 48 h the cells were detached by trypsinization, centrifuged and resuspended. 100 µl of cell suspension was added with 100 µl of Annexin V reagent and incubated for 20 min at room temperature following which the cells were analyzed for apoptosis.
SMILES,Early Apop. (Annexin V) [%],Total apoptotic cells (Annexin V)
"O=c1[nH]cc(F)c(=O)[nH]1 [5-FU, 5-Fluorouracil, reference compound]",15.86,38.08 % of total cells
"Cc1ccc(/C=C/C(=O)c2ccccc2O)cc1 [C1, 1-(2-Hydroxy-phenyl)-3-p-tolyl-propenone]",5.85,37.70 % of total cells
"O=C(/C=C/c1ccc(O)cc1)c1ccccc1O [C2, 3-(4-Hydroxy-phenyl)-1-(2-hydroxy-phenyl)-propenone]",18,36.60 % of total cells
"O=C(O)c1ccc(C=CC(=O)c2ccccc2O)cc1 [C3, 4-[3-(2-Hydroxy-phenyl)-3-oxo-propenyl]-benzoic acid]",–,31.80 % of total cells
